# Laboratory results as given in US8178528B2, “Histamine H3 receptor agents, preparation and therapeutic uses” (Eli Lilly and Company, priority 2005, dated 2012).
# Target: T1, H3R membranes (H3R8-expressing HEK293 cell line) (Homo sapiens, UniProt Q9Y5N1)
# T1 construct: expressed in transfected cells; membranes
# Test: [35S] GTP gamma [S] binding assay
# Assay type: biochemical
# Conditions: agonist R(-)alpha methylhistamine
# Protocol: Membranes isolated as described in (Preparation of Histamine Receptor Subtype Membranes) are used in a [35S]GTPχS functional assay. Binding of [35S]GTPχS to membranes indicates agonist activity. Compounds of the invention of Formula I or Formula II are tested for their ability to inhibit binding in the presence of agonists. Alternately, the same transfected cell lines are used for a cAMP assay wherein H3R agonists inhibit forskolin-activated synthesis of cAMP. Compounds of Formula I or Formula II are tested for their ability to permit forskolin-stimulated cAMP synthesis in the presence of agonist.
# cDNA for the human histamine 3 receptor is cloned and expressed as described in (A. Preparation H1R membranes), above. Transfected cells are selected using G418 ([…]), grown, and tested for histamine binding by the SPA described above. For total binding, cells are assayed in a SPA reaction described above containing 50 mM Tris-HCL (assay buffer), pH 7.6, 1 mg wheat germ agglutinin SPA beads (Amersham Pharmacia Biotech, #RPNQ0001), and 1 nM (3H)-n-alpha-methylhistamine (NEN, NET1027) (total volume per well=200 μl). Thioperimide is added to determine non-specific binding. […]
# Antagonist activity of selected compounds is tested for inhibition of [35S] […] Plates are counted in Wallac Trilux 1450 Microbeta scintillation counter for 1 minute. […]
# T1 sequence (Q9Y5N1 whole entry): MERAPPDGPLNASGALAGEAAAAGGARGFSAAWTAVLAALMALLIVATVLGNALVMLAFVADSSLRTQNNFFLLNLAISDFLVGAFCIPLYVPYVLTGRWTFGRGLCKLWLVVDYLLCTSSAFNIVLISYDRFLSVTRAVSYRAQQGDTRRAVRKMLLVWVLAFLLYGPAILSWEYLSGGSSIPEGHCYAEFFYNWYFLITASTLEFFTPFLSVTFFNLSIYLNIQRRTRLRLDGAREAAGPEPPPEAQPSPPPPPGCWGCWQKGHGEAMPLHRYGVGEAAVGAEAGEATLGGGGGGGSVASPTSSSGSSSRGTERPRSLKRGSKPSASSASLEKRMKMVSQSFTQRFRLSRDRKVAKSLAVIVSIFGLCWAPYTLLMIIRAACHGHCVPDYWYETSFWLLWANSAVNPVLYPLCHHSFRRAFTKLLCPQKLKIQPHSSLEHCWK
row,Ki,Structure (SMILES)
1,47 nM,O=C(c1ccc(C2CCCCC2)cc1)N1CCC[C@H]1CN1CCCC1
2,12 nM,O=C(c1ccc(S(=O)(=O)c2ccccc2)cc1)N1CCC[C@H]1CN1CCCC1
